Reference: patent US20250115600A1, “COVALENT MODIFIERS OF AKT1 AND USES THEREOF” (Terremoto Biosciences, Inc., priority 2022, published 2025)

Experiments:
Experiment in all cases: Live cell target engagement (NanoBRET) in HEK293 cells
Assay type in all cases: cell-based
AKT1 E17K = AKT1 E17K (Homo sapiens (Human), UniProt P31749, E17K); conditions: for IC50: HEK293, 2 hours at 37° C.
AKT1 WT = AKT1 WT (Homo sapiens (Human), UniProt P31749); conditions: HEK293, 2 hours at 37° C.
AKT2 = AKT2 (Homo sapiens (Human), UniProt P31751); conditions: HEK293, 2 hours at 37° C.
Sequence of AKT2 (P31751 whole entry): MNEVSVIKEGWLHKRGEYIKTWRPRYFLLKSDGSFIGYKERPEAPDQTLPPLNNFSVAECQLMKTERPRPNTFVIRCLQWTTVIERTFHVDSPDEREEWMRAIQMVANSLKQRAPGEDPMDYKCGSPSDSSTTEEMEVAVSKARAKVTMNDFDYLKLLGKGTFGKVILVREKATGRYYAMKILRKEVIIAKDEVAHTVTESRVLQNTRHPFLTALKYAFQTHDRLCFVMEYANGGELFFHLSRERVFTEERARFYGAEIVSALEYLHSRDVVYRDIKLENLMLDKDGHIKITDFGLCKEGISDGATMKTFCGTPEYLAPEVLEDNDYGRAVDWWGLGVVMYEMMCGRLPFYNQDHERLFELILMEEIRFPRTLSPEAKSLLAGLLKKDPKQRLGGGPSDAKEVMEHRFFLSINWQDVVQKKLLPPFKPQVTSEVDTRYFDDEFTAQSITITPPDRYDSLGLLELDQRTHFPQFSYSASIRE

Sequence of AKT1 E17K (P31749 whole entry E17K): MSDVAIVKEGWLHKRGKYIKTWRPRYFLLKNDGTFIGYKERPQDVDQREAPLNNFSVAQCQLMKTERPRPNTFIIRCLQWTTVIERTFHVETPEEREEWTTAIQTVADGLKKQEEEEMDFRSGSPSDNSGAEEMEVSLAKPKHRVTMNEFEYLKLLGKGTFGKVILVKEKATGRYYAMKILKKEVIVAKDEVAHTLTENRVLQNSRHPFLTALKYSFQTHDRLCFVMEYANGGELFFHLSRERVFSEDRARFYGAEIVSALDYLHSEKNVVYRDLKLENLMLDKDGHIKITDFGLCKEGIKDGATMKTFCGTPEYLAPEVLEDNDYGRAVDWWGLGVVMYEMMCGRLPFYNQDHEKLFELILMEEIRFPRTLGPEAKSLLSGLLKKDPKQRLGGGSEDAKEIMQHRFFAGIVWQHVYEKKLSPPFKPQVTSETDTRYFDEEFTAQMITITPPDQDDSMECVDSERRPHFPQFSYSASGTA
Sequence of AKT1 WT (P31749 whole entry): as the sequence (P31749 whole entry E17K) above, with K17E counted along it

Compound | AKT1 E17K IC50: Selectivity vs AKT1 WT (AKT1 E17K) | AKT1 E17K IC50: Selectivity vs AKT2 (AKT1 E17K) | IC50 (AKT1 E17K) [nM] | IC50 (AKT1 WT) [nM] | IC50 (AKT2) [nM]
Nc1ncccc1-c1nc2ccc(C3CC3C(=O)N3CCOCC3)nc2n1-c1ccc(CNC(=O)Cc2ccc(C=O)c(O)c2)cc1 (stereo not drawn) [Example 6, N-({4-[2-(2-aminopyridin-3-yl)-5-[2-(morpholine-4-carbonyl)cyclopropyl]imidazo[4,5-b]pyridin-3-yl]phenyl}methyl)-2-(4-formyl-3-hydroxyphenyl)acetamide] | 8.7 | 18 | 100 to 500 | > 500 | > 500
CC(=O)Nc1c(C=O)ccc(CCNCc2ccc(-n3c(-c4cccnc4N)nc4cccnc43)cc2)c1F [Compound 89, N-(3-{2-[({4-[2-(2-aminopyridin-3-yl)imidazo[4,5-b]pyridin-3-yl]phenyl}methyl)amino]ethyl}-2-fluoro-6-formylphenyl)acetamide] | 0.14 | 2.1 | > 500 | 100 to 500 | > 500
C[C@H](NCCc1ccc(O)c(C=O)c1)c1ccc(-n2c(-c3cccnc3N)nc3ccc(-c4ccccc4)nc32)cc1 [Compound 92, 5-(2-{[(1S)-1-{4-[2-(2-aminopyridin-3-yl)-5-phenylimidazo[4,5-b]pyridin-3-yl]phenyl}ethyl]amino}ethyl)-2-hydroxybenzaldehyde] | 0.26 | 0.75 | 100 to 500 | 100 to 500 | 100 to 500
Nc1ncccc1-c1nc2ccc(-c3ccccc3)nc2n1-c1ccc(C(=O)NCCc2ccc(C=O)c(O)c2)cn1 [Compound 112, 6-[2-(2-aminopyridin-3-yl)-5-phenylimidazo[4,5-b]pyridin-3-yl]-N-[2-(4-formyl-3-hydroxyphenyl)ethyl]pyridine-3-carboxamide] | 1 | 1 | > 500 | > 500 | > 500
CC(C)(O)c1ccc2nc(-c3cccnc3N)n(-c3ccc(CNC(=O)Cc4ccc(C=O)c(O)c4)cc3)c2n1 [Example 17, N-({4-[2-(2-aminopyridin-3-yl)-5-(2-hydroxypropan-2-yl)imidazo[4,5-b]pyridin-3-yl]phenyl}methyl)-2-(4-formyl-3-hydroxyphenyl)acetamide] | 10 | >110 | < 100 | > 500 | > 500
Nc1ncccc1-c1nc2cccnc2n1-c1ccc(CNC(=O)Cc2ccc(C=O)c(O)c2F)cc1 [Compound 93, N-({4-[2-(2-aminopyridin-3-yl)imidazo[4,5-b]pyridin-3-yl]phenyl}methyl)-2-(2-fluoro-4-formyl-3-hydroxyphenyl)acetamide] | 3.9 | 50 | < 100 | 100 to 500 | > 500
Nc1ncccc1-c1nc2ccc(N3CCOCC3)nc2n1-c1ccc(CNC(=O)c2ccc(O)c(C=O)c2)cc1 [Example 3, N-(4-(2-(2-aminopyridin-3-yl)-5-morpholino-3H-imidazo[4,5-b]pyridin-3-yl)benzyl)-3-formyl-4-hydroxybenzamide] | 2.2 | 36 | 100 to 500 | 100 to 500 | > 500
C[C@@H](NCCc1ccc(O)c(C=O)c1)c1ccc(-n2c(-c3cccnc3N)nc3ccc(-c4ccccc4)nc32)cc1 [Compound 105, (R)-5-(2-((1-(4-(2-(2-aminopyridin-3-yl)-5-phenyl-3H-imidazo[4,5-b]pyridin-3-yl)phenyl)ethyl)amino)ethyl)-2-hydroxybenzaldehyde] | 1 | >1.0 | > 500 | > 500 | > 500
Nc1ncccc1-c1nc2ccc(-c3ccccc3)nc2n1-c1ccc(CCNC(=O)c2ccc(C=O)c(O)c2)cc1 [Compound 111, N-(2-{4-[2-(2-aminopyridin-3-yl)-5-phenylimidazo[4,5-b]pyridin-3-yl]phenyl}ethyl)-4-formyl-3-hydroxybenzamide] | 0.83 | 6.3 | < 100 | < 100 | 100 to 500
Nc1ncccc1-c1nc2cccnc2n1-c1ccc(CNC(=O)c2ccc(O)c(C=O)n2)cc1 [Compound 47, N-(4-(2-(2-aminopyridin-3-yl)-3H-imidazo[4,5-b]pyridin-3-yl)benzyl)-6-formyl-5-hydroxypicolinamide] | 1.8 | 3.7 | > 500 | > 500 | > 500
CC(C)(O)C#Cc1ccc2nc(-c3cccnc3N)n(-c3ccc(CNC(=O)Cc4ccc(C=O)c(O)c4)cc3)c2n1 [Compound 51, N-(4-(2-(2-aminopyridin-3-yl)-5-(3-hydroxy-3-methylbut-1-yn-1-yl)-3H-imidazo[4,5-b]pyridin-3-yl)benzyl)-2-(4-formyl-3-hydroxyphenyl)acetamide] | 3.8 | 90 | < 100 | 100 to 500 | > 500

The next lines start with the values.

AKT1 E17K IC50: Selectivity vs AKT1 WT (AKT1 E17K) | AKT1 E17K IC50: Selectivity vs AKT2 (AKT1 E17K) | IC50 (AKT1 E17K) [nM] | IC50 (AKT1 WT) [nM] | IC50 (AKT2) [nM] | Compound
0.63 | 0.6 | < 100 | < 100 | < 100 | CC(=O)N(C)C1CCN(c2cccc(-c3ccc4nc(-c5cccnc5N)n(-c5ccc(CNCCc6ccc(C=O)c(O)c6)cc5)c4n3)c2)CC1 [Compound 109, N-(1-{3-[2-(2-aminopyridin-3-yl)-3-[4-({[2-(4-formyl-3-hydroxyphenyl)ethyl]amino}methyl)phenyl]imidazo[4,5-b]pyridin-5-yl]phenyl}piperidin-4-yl)-N-methylacetamide]
3.1 | 28 | < 100 | < 100 | 100 to 500 | Nc1ncccc1-c1nc2ccc(-c3ccccc3)nc2n1-c1ccc(CC(=O)NC2(c3ccc(C=O)c(O)c3)CC2)cc1 [Example 11, 2-{4-[2-(2-aminopyridin-3-yl)-5-phenylimidazo[4,5-b]pyridin-3-yl]phenyl}-N-[1-(4-formyl-3-hydroxyphenyl)cyclopropyl]acetamide]
2 | 13 | < 100 | 100 to 500 | > 500 | Nc1ncccc1-c1nc2ccc(-c3ccccc3)nc2n1-c1ccc(CNC(=O)c2ccc(O)c(C=O)c2F)cc1 [Example 15, N-(4-(2-(2-aminopyridin-3-yl)-5-phenyl-3H-imidazo[4,5-b]pyridin-3-yl)benzyl)-2-fluoro-3-formyl-4-hydroxybenzamide]
2.1 | 32 | < 100 | < 100 | 100 to 500 | Nc1ncccc1-c1nc2ccc(-c3ccccc3)nc2n1-c1ccc(CNC(=O)c2cc(Br)c(O)c(C=O)c2)cc1 [Compound 50, N-({4-[2-(2-aminopyridin-3-yl)-5-phenylimidazo[4,5-b]pyridin-3-yl]phenyl}methyl)-3-bromo-5-formyl-4-hydroxybenzamide]
2 | 6.2 | < 100 | < 100 | 100 to 500 | CC(=O)Nc1cccc(-c2ccc3nc(-c4cccnc4N)n(-c4ccc(CNCCc5ccc(C=O)c(O)c5)cc4)c3n2)c1 [Compound 121, N-{3-[2-(2-aminopyridin-3-yl)-3-[4-({[2-(4-formyl-3-hydroxyphenyl)ethyl]amino}methyl)phenyl]imidazo[4,5-b]pyridin-5-yl]phenyl}acetamide]
10 | 40 | < 100 | 100 to 500 | > 500 | Nc1ncccc1-c1nc2ccc(-c3ccnc(N4CCOCC4)c3)nc2n1-c1ccc(CNC(=O)Cc2ccc(C=O)c(O)c2)cc1 [Compound 34, N-({4-[2-(2-aminopyridin-3-yl)-5-[2-(morpholin-4-yl)pyridin-4-yl]imidazo[4,5-b]pyridin-3-yl]phenyl}methyl)-2-(4-formyl-3-hydroxyphenyl)acetamide]
2 | 9.2 | < 100 | < 100 | 100 to 500 | Nc1ncccc1-c1nc2ccc(-c3ccccc3)nc2n1-c1ccc(CCNCCc2ccc(C=O)c(O)c2)cc1 [Compound 36, 4-(2-((4-(2-(2-aminopyridin-3-yl)-5-phenyl-3H-imidazo[4,5-b]pyridin-3-yl)phenethyl)amino)ethyl)-2-hydroxybenzaldehyde]
3.9 | 160 | < 100 | < 100 | > 500 | Nc1ncccc1-c1nc2ccc(OC3CC3)nc2n1-c1ccc(CNC(=O)Cc2ccc(C=O)c(O)c2)cc1 [Example 10, N-({4-[2-(2-aminopyridin-3-yl)-5-cyclopropoxyimidazo[4,5-b]pyridin-3-yl]phenyl}methyl)-2-(4-formyl-3-hydroxyphenyl)acetamide]
1.6 | 13 | < 100 | < 100 | 100 to 500 | Nc1ncccc1-c1nc2ccc(-c3ccccc3)nc2n1-c1ccc(C(=O)NCCc2ccc(C=O)c(O)c2)cc1 [Compound 131, 4-(2-(2-aminopyridin-3-yl)-5-phenyl-3H-imidazo[4,5-b]pyridin-3-yl)-N-(4-formyl-3-hydroxyphenethyl)benzamide]
12 | 120 | < 100 | 100 to 500 | > 500 | Nc1ncccc1-c1nc2ccc(N3CC4CCC(C3)O4)nc2n1-c1ccc(CNC(=O)Cc2ccc(C=O)c(O)c2)cc1 [Example 8, N-({4-[2-(2-aminopyridin-3-yl)-5-{8-oxa-3-azabicyclo[3.2.1]octan-3-yl}imidazo[4,5-b]pyridin-3-yl]phenyl}methyl)-2-(4-formyl-3-hydroxyphenyl)acetamide]
